Reference: US20250346512A1, “WATER TREATMENT METHOD, WATER TREATMENT APPARATUS, SLIME INHIBITOR, AND CLEANING METHOD” (ORGANO CORPORATION, priority 2022, published 2025)

Tested on: viable bacteria
Assay: Contact of slime inhibitor with water containing viable bacteria
Type: cell-based
Text: The slime inhibitor was brought into contact with water containing viable bacteria, and the number of viable bacteria before the contact with the slime inhibitor and the number of viable bacteria after contact with the slime inhibitor for one hour were examined.

Compound: OCl [Sodium hypochlorite, sodium hypochlorite]
- Number of viable bacteria before contact with slime inhibitor (baseline before contact): 10^6
- Number of viable bacteria after contact with slime inhibitor for one hour (slime inhibitor 0.1 mg/L as Cl2, contact one hour): 10^5
